Source: patent publication US20100204167A1, “ACTIVE COMPOUND COMBINATIONS HAVING INSECTICIDAL AND ACARICIDAL PROPERTIES” (priority 2006, published 2010)

Key:
[1] = test system: Phaedon cochleariae larvae; assay: Phaedon cochleariae larvae test (Example D, spray); format: in vivo; conditions: single active compound
[2] = test system: Aphis gossypii; assay: Aphis gossypii test (cotton leaves dipped); format: in vivo; conditions: single active compound
[3] = test system: Myzus persicae; assay: Myzus persicae test (cabbage leaves dipped); format: in vivo; conditions: single active compound
[4] = test system: Phaedon cochleariae larvae; assay: Phaedon cochleariae larvae test (Example G); conditions: 0.8 ppm, single active compound
[5] = test system: Spodoptera frugiperda larvae; assay: Spodoptera frugiperda larvae test (spray); format: in vivo; conditions: single active compound
[6] = test system: Tetranychus urticae; assay: Tetranychus test (OP-resistant/spray treatment); format: in vivo; conditions: single active compound
Protocol: Disks of bean leaves (Phaseolus vulgaris) which are infested by all stages of the greenhouse red spider mite (Tetranychus urticae) are sprayed with an active compound preparation of the desired concentration.
After the desired period of time, the activity in % is determined.

[7] = test system: Myzus persicae; assay: Myzus persicae test (cabbage leaves sprayed); format: in vivo; conditions: single active compound

CCOCn1c(-c2ccc(Cl)cc2)c(C#N)c(Br)c1C(F)(F)F [chlorfenapyr]
Kill in % after 2d ([1]; 4 g/ha): 0%

CO[C@H]1CC[C@]2(CC1)NC(=O)C(c1cc(C)ccc1C)=C2O [compound (I-1)]
Kill in % after 6d ([2]; 100 ppm): 70%
Kill in % after 6d ([3]; 4 ppm): 5%
Kill in % after 6d [4]: 0%

COC1CCC2(CC1)NC(=O)C(c1cc(C)ccc1C)=C2O (centres unmarked) [compound (I-1-a)]
Kill in % after 6d ([2]; 100 ppm): 50%
Kill in % after 6d ([3]; 4 ppm): 20%
Kill in % after 6d [4]: 0%

CCOC(=O)OC1=C(c2cc(C)ccc2C)C(=O)N[C@]12CC[C@@H](OC)CC2 [compound (I-2)]
Kill in % after 6d ([2]; 0.8 ppm): 0%
Kill in % after 2d ([5]; 20 g/ha): 17%
Kill in % after 2d ([5]; 100 g/ha): 83%
Kill in % after 6d ([1]; 4 g/ha): 0%
Kill in % after 2d ([1]; 20 g/ha): 0%
Kill in % after 6d ([1]; 20 g/ha): 0%
Kill in % after 2d ([6]; 0.8 g/ha): 20%
Kill in % after 2d ([6]; 20 g/ha): 10%
Kill in % after 6d ([3]; 0.8 ppm): 10%
Kill in % after 6d ([7]; 0.8 g/ha): 50%
Kill in % after 1d ([7]; 20 g/ha): 0%

CCOC(=O)OC1=C(c2cc(C)ccc2C)C(=O)NC12CCC(OC)CC2 (centres unmarked) [compound (I-2-a)]
Kill in % after 6d ([2]; 0.8 ppm): 0%
Kill in % after 2d ([5]; 20 g/ha): 17%
Kill in % after 2d ([5]; 100 g/ha): 83%
Kill in % after 6d ([1]; 4 g/ha): 0%
Kill in % after 2d ([1]; 20 g/ha): 0%
Kill in % after 6d ([1]; 20 g/ha): 0%
Kill in % after 2d ([6]; 0.8 g/ha): 0%
Kill in % after 2d ([6]; 20 g/ha): 0%
Kill in % after 6d ([3]; 0.8 ppm): 0%
Kill in % after 6d ([7]; 0.8 g/ha): 50%
Kill in % after 1d ([7]; 20 g/ha): 0%

CC(C)c1cc(Oc2ccccc2)cc(C(C)C)c1NC(=S)NC(C)(C)C [diafenthiuron]
Kill in % after 2d ([5]; 100 g/ha): 50%
Kill in % after 6d ([7]; 4 g/ha): 60%

Cc1nn(C)c(Oc2ccccc2)c1C=NOCc1ccc(C(=O)OC(C)(C)C)cc1 [fenpyroximate]
Kill in % after 2d ([5]; 100 g/ha): 50%
Kill in % after 6d ([1]; 20 g/ha): 33%
Kill in % after 1d ([7]; 20 g/ha): 20%

CC(C)(C)c1ccc(CSc2cnn(C(C)(C)C)c(=O)c2Cl)cc1 [pyridaben]
Kill in % after 6d ([1]; 4 g/ha): 33%
Kill in % after 2d ([6]; 0.8 g/ha): 0%

CCc1nn(C)c(C(=O)NCc2ccc(C(C)(C)C)cc2)c1Cl [tebufenpyrad]
Kill in % after 6d ([1]; 4 g/ha): 0%

abamectin
Kill in % after 6d ([2]; 0.8 ppm): 45%
Kill in % after 6d ([3]; 0.8 ppm): 10%
Kill in % after 6d ([3]; 4 ppm): 65%

milbemectin
Kill in % after 1d ([7]; 0.8 g/ha): 0%

spinosad
Kill in % after 6d ([2]; 100 ppm): 20%
Kill in % after 2d ([6]; 4 g/ha): 10%
Kill in % after 6d [4]: 20%
